What was measured:
Cbl-b (residues 36-427) = Cbl-b (residues 36-427) (Homo sapiens, UniProt Q13191); test: Cbl-b binding assay (SPR, Biacore T200); settings: 20° C., 1:1 binding model
Summary of the method: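 Affinities derived from global 1:1 steady-state or kinetic fits of double-referenced, solvent-corrected SPR data, 20 °C, NeutrAvidin-capture chip. Compound series (top 100 or 50 μM, 8–10 points) injected 50 s, 90–180 s dissociation. Asterisked values used 50 mM instead of 100 mM NaCl and 30 nM Src kinase.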

T-cell [1] = test: IL-2 secretion from T-cells co-stimulated with anti-CD3 and anti-CD28 antibody (Biological Example 2); format: cell-based, human; settings: Homo sapiens, T-cell, fold change over baseline, primary human total T-cells, read-out: IL-2 secretion Anti-CD3/Anti-CD28 stimulation; for fold induction at 0.3 µM: 0.3 μM Cbl-b inhibitor; for fold induction at 1 µM: 1 μM Cbl-b inhibitor; for fold induction at 4 µM: 4 μM Cbl-b inhibitor
Summary of the method: (§1)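 No assay protocol given; T-cells stimulated with anti-CD3 alone or anti-CD3 plus anti-CD28, with or without Cbl-b inhibitor. Activation read as IL-2 secretion or CD25 surface staining, expressed as fold over baseline from uninhibited cells […].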

T-cell [2] = test: CD25 cell surface staining on T-cells co-stimulated with anti-CD3 and anti-CD28 antibody (Biological Example 2); format: cell-based, human; settings: Homo sapiens, T-cell, fold change over baseline, primary human total T-cells, read-out: CD25 staining Anti-CD3/Anti-CD28 stimulation; for fold induction at 0.3 µM: 0.3 μM Cbl-b inhibitor; for fold induction at 1 µM: 1 μM Cbl-b inhibitor; for fold induction at 4 µM: 4 μM Cbl-b inhibitor
Summary of the method: as §1

T-cell [3] = test: IL-2 secretion from T-cells stimulated with anti-CD3 antibody alone (Biological Example 2); format: cell-based, human; settings: T-cell, fold change over baseline, primary human total T-cells, read-out: IL-2 secretion Anti-CD3 stimulation; for fold induction at 1 µM: 1 μM Cbl-b inhibitor; for fold induction at 8 µM: 8 μM Cbl-b inhibitor

Sequence of Cbl-b (residues 36-427) (Q13191 36-427): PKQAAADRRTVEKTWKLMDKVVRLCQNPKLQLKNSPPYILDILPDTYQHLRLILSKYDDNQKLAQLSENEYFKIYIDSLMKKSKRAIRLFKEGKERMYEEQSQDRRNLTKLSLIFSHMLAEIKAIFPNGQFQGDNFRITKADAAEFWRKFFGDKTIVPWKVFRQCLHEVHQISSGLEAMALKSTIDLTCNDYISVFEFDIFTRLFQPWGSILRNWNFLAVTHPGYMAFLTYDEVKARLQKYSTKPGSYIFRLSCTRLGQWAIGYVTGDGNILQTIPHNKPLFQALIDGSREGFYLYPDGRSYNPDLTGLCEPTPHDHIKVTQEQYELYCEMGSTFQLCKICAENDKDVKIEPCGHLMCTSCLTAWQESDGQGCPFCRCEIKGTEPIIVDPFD

| Structure (SMILES) | Kd (Cbl-b (residues 36-427)) | fold induction at 0.3 µM (T-cell [1]) | fold induction at 1 µM (T-cell [1]) | fold induction at 4 µM (T-cell [1]) | fold induction at 0.3 µM (T-cell [2]) | fold induction at 1 µM (T-cell [2]) | fold induction at 4 µM (T-cell [2]) | fold induction at 1 µM (T-cell [3]) | fold induction at 8 µM (T-cell [3]) |
| --- | --- | --- | --- | --- | --- | --- | --- | --- | --- |
| C[C@H](Cc1nncn1C)c1cccc(NC(=O)c2cc(C(C)(C)O)c(Cl)cn2)c1 [Compound 186, (R)-5-chloro-4-(2-hydroxypropan-2-yl)-N-(3-(1-(4-methyl-4H-1,2,4-triazol-3-yl)propan-2-yl)phenyl)picolinamide] | 0.301 to 1 µM | 2.51 to 5 | 1.01 to 2.5 | 5 to 7.5 | 1.01 to 1.3 | 1.31 to 1.5 | > 1.76 | 0.051 to 0.1 | 0.101 to 0.15 |
| C[C@H](Cc1nncn1C)c1cccc(NC(=O)c2ccnc(C(F)(F)F)n2)c1 [Compound 187, (R)-N-(3-(1-(4-methyl-4H-1,2,4-triazol-3-yl)propan-2-yl)phenyl)-2-(trifluoromethyl)pyrimidine-4-carboxamide] | 0.1 to 0.3 µM | 1.01 to 2.5 | 2.51 to 5 | > 7.5 | 1.51 to 1.75 | > 1.76 | > 1.76 | > 0.201 | > 0.201 |
| C[C@H](Cc1nncn1C)c1cccc(NC(=O)c2cccc(C(F)(F)CO)n2)c1 [Compound 188, (R)-6-(1,1-difluoro-2-hydroxyethyl)-N-(3-(1-(4-methyl-4H-1,2,4-triazol-3-yl)propan-2-yl)phenyl)picolinamide] | 0.301 to 1 µM | < 1 | < 1 | < 1 | 1.01 to 1.3 | 1.31 to 1.5 | > 1.76 | < 0.05 | 0.051 to 0.1 |
| C[C@H](Cc1nncn1C)c1cccc(NC(=O)c2cncc(C(F)(F)F)n2)c1 [Compound 189, (R)-N-(3-(1-(4-methyl-4H-1,2,4-triazol-3-yl)propan-2-yl)phenyl)-6-(trifluoromethyl)pyrazine-2-carboxamide] | 0.301 to 1 µM | 1.01 to 2.5 | 2.51 to 5 | 5 to 7.5 | > 1.76 | > 1.76 | > 1.76 | 0.051 to 0.1 | 0.051 to 0.1 |
| C[C@H](Cc1nncn1C)c1cccc(NC(=O)c2cc(C3(O)COC3)cc(C(F)(F)F)n2)c1 [Compound 190, (R)-4-(3-hydroxyoxetan-3-yl)-N-(3-(1-(4-methyl-4H-1,2,4-triazol-3-yl)propan-2-yl)phenyl)-6-(trifluoromethyl)picolinamide] | 0.1 to 0.3 µM | < 1 | 1.01 to 2.5 | 5 to 7.5 | > 1.76 | > 1.76 | > 1.76 | < 0.05 | 0.101 to 0.15 |
| C[C@H](Cc1nncn1C)c1cccc(NC(=O)c2cc(S(C)(=O)=O)cc(C3CC3)n2)c1 [Compound 198, 6-cyclopropyl-N-[3-[(1R)-1-methyl-2-(4-methyl-1,2,4-triazol-3-yl)ethyl]phenyl]-4-methylsulfonyl-pyridine-2-carboxamide] | 0.1 to 0.3 µM | 1.01 to 2.5 | 1.01 to 2.5 | 1.01 to 2.5 | 1.01 to 1.3 | 1.01 to 1.3 | < 1 | 0.101 to 0.15 | > 0.201 |
| C[C@H](Cc1nncn1C)c1cccc(NC(=O)c2cc(S(N)(=O)=O)cc(C(F)(F)F)n2)c1 [Compound 200, (R)-N-(3-(1-(4-methyl-4H-1,2,4-triazol-3-yl)propan-2-yl)phenyl)-4-sulfamoyl-6-(trifluoromethyl)picolinamide] | 0.301 to 1 µM | < 1 | < 1 | 1.01 to 2.5 | 1.01 to 1.3 | 1.01 to 1.3 | 1.01 to 1.3 | < 0.05 | 0.051 to 0.1 |
